In experiment [1] the test system is T84 cells. Put plainly: Inhibition of T84 colon carcinoma cell proliferation (WST-1, Example 1). Type of experiment: cell-based. The conditions noted are these: Homo sapiens, 24 hours incubation. As to the method:
The effect of N,N,-diethyl-8,8-dipropyl-2-azaspiro[4,5]decane-2-propanamine dimaleate (Compound 1) on proliferation of human colon carcinoma cells T84 and CaCo-2 was evaluated in the following manner. Cell proliferation was measured by WST-1 dye conversion to Formazan assay using the proliferation kit from BioVision, CA. The procedure used was essentially as described in the manufacture's instructions. Briefly, cells were grown for 7 days until they formed semi-confluent monolayers. On day 7, cells were trypsinized and resuspended in 96-well plates at a concentration of approximately 40,000 cells/well and allowed to grow for 24 hours at 37° C.
Subsequently, fresh media containing increasing concentrations of Compound 1, as indicated in the FIG. 1, were added and assay plates were further incubated for an additional period of 24 hours. A solution of 5 μl of WST-1 dye per well was added and plates were read after 4 hours at 440 and 600 nm using an ELISA plate reader. The absorbance at 440 minus that at 600 nm is directly proportion to the number of proliferating cells. All samples were measured in triplicate and results were expressed as an average of three determinations.
(Tetrazolium assays rely on reduction of a dye to a coloured formazan, in cell work by metabolically active cells.)

The subject of experiment [2] is CaCo-2 cells. As to the kind of experiment: Inhibition of proliferation of CaCo-2 cells (WST-1, Example 8). It is filed as cell-based. The following applies: Homo sapiens, 12 hours. The procedure:
The effect of N,N,-diethyl-8,8-dipropyl-2-azaspiro[4,5]decane-2-propanamine dimaleate (Compound 1) and other analogs (structures shown in Table 7) on proliferation of CaCo-2, a human colon carcinoma cell line, were evaluated in the following manner. Cell proliferation was measured by WST-1 dye conversion to Formazan assay using a proliferation kit from BioVision, CA. The procedure used was essentially the same as described in the manufacture's instructions. Briefly, cells were grown for 7 days until they formed semi-confluent monolayers. On day 7, cells were trypsinized and re-suspended in 96-well plates at a concentration of approximately 50,000 cells/well. […] A solution of 10 μl of WST-1 dye per well was added and plates were read after 4 hours at 440 and 600 nm using an ELISA plate reader. The absorbance at 440-600 nm is directly proportion to the number of proliferating cells. All samples were measured in duplicate and results were expressed as an average of two determinations.

For one compound, IC50 and inhibition results are on record in patent publication US20050250801A1, “Method of treating cancer with azaspirane compositions” (priority 2003, published 2005).

Molecules are shown by their SMILES.

The term IC50 denotes the concentration that gives 50% inhibition. Low values mean higher potency, high ones lower potency. Consider `CCCC1(CCC)CCC2(CCN(CCCN(CC)CC)C2)CC1.O=C(O)/C=C\C(=O)O.O=C(O)/C=C\C(=O)O` [Compound 1, N,N,-diethyl-8,8-dipropyl-2-azaspiro[4,5]decane-2-propanamine dimaleate], for which the IC50 was 0.625 to 1.25 µM in experiment [1] and approximately 2.5 µM in experiment [2]. The inhibition at 5 µM in experiment [2] (5 μM, read-out: % Inhibition of Proliferation at 5 μM Compound) is 85%.
